Measurements taken from PubChem BioAssay (NCI).
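Exposure lasted 48 hours, with cells grown in 96-well plates and compounds tested at five concentrations. Abbreviation: GI50, concentration required for 50% inhibition of growth. TGI: concentration producing complete growth inhibition.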

Experiments:
Test in all cases: NCI-60 cell line screen, 48 h
[1] = system: ACHN renal
[2] = system: SK-MEL-5 melanoma
[3] = system: HL-60(TB) leukemia
[4] = system: SK-MEL-2 melanoma
[5] = system: LOX IMVI melanoma
[6] = system: HCC-2998 colon
[7] = system: MALME-3M melanoma
[8] = system: PC-3 prostate
[9] = system: IGROV1 ovarian
[10] = system: RPMI-8226 leukemia
[11] = system: NCI-H23 lung
[12] = system: A549 NSCLC
[13] = system: BT-549 breast
[14] = system: EKVX NSCLC
[15] = system: SK-OV-3 ovarian
[16] = system: NCI-H522 lung
[17] = system: T-47D breast
[18] = system: 786-0 renal
[19] = system: MOLT-4 leukemia
[20] = system: SNB-75 CNS
[21] = system: MDA-MB-231 breast
[22] = system: SF-268 CNS
[23] = system: HCT-15 colon
[24] = system: NCI/ADR-RES ovarian
[25] = system: UACC-257 melanoma
[26] = system: RXF 393 renal
[27] = system: K-562 leukemia
[28] = system: TK-10 renal
[29] = system: CCRF-CEM leukemia
[30] = system: OVCAR-5 ovarian
[31] = system: NCI-H226 lung
[32] = system: SF-539 CNS
[33] = system: SW-620 colon
[34] = system: UACC-62 melanoma
[35] = system: A498 renal
[36] = system: M14 melanoma
[37] = system: MDA-MB-435
[38] = system: DU-145 prostate
[39] = system: SK-MEL-28 melanoma
[40] = system: SR leukemia
[41] = system: SNB-19 CNS
[42] = system: U251 CNS
[43] = system: SF-295 CNS
[44] = system: OVCAR-4 ovarian
[45] = system: UO-31 renal
[46] = system: NCI-H460 lung
[47] = system: HT29 colon
[48] = system: COLO 205 colon
[49] = system: HOP-62 NSCLC
[50] = system: KM12 colon
[51] = system: CAKI-1 renal
[52] = system: OVCAR-3 ovarian
[53] = system: MCF7 breast
[54] = system: SN12C renal
[55] = system: HCT-116 colon
[56] = system: HS 578T breast
[57] = system: HOP-92 NSCLC
[58] = system: OVCAR-8 ovarian

CC(C)OC(=O)c1cc(NS(=O)(=O)c2ccc3ccccc3c2)cc(C(=O)OC(C)C)c1
GI50 [1]: 33.1 µM
TGI [1]: > 100 µM
GI50 [2]: 16 µM
TGI [2]: 31.8 µM
GI50 [3]: 24.2 µM
TGI [3]: 65.8 µM
GI50 [4]: 26.2 µM
TGI [4]: 73.6 µM
GI50 [5]: 28.5 µM
TGI [5]: > 100 µM
GI50 [6]: 17.3 µM
TGI [6]: 47.2 µM
GI50 [7]: 32.7 µM
TGI [7]: > 100 µM
GI50 [8]: 23.8 µM
TGI [8]: 91.8 µM
GI50 [9]: 35.2 µM
TGI [9]: > 100 µM
GI50 [10]: 15.6 µM
TGI [10]: 45.3 µM
GI50 [11]: 21.9 µM
TGI [11]: 73.9 µM
GI50 [12]: 27.1 µM
TGI [12]: 93.5 µM
GI50 [13]: 17.2 µM
TGI [13]: 43.2 µM
GI50 [14]: 25 µM
TGI [14]: 89.2 µM
GI50 [15]: 32.3 µM
TGI [15]: > 100 µM
GI50 [16]: 18.3 µM
TGI [16]: 45.9 µM
GI50 [17]: 17.6 µM
TGI [17]: 58.5 µM
GI50 [18]: 30.9 µM
TGI [18]: > 100 µM
GI50 [19]: 22 µM
TGI [19]: 63.4 µM
GI50 [20]: 23.9 µM
TGI [20]: 66.2 µM
GI50 [21]: 21.4 µM
TGI [21]: 76.5 µM
GI50 [22]: 15.8 µM
TGI [22]: 57.3 µM
GI50 [23]: 28.4 µM
TGI [23]: > 100 µM
GI50 [24]: 16.3 µM
TGI [24]: 56.6 µM
GI50 [25]: 30.5 µM
TGI [25]: > 100 µM
GI50 [26]: 20.9 µM
TGI [26]: > 100 µM
GI50 [27]: 29.6 µM
TGI [27]: > 100 µM
GI50 [28]: 45.2 µM
TGI [28]: > 100 µM
GI50 [29]: 22.5 µM
TGI [29]: 88.9 µM
GI50 [30]: 18.3 µM
TGI [30]: 48.8 µM
GI50 [31]: 26.8 µM
TGI [31]: > 100 µM
GI50 [32]: 24.6 µM
TGI [32]: 61.3 µM
GI50 [33]: 30.3 µM
TGI [33]: > 100 µM
GI50 [34]: 17 µM
TGI [34]: 48.6 µM
GI50 [35]: 17.2 µM
TGI [35]: 54.9 µM
GI50 [36]: 17.6 µM
TGI [36]: 46.8 µM
GI50 [37]: 23.1 µM
TGI [37]: 73.2 µM
GI50 [38]: 28.8 µM
TGI [38]: > 100 µM
GI50 [39]: 24.6 µM
TGI [39]: 73.2 µM
GI50 [40]: 24.5 µM
TGI [40]: 76.2 µM
GI50 [41]: 33.5 µM
TGI [41]: > 100 µM
GI50 [42]: 31.7 µM
TGI [42]: > 100 µM
GI50 [43]: 22.2 µM
TGI [43]: 79.7 µM
GI50 [44]: 22 µM
TGI [44]: 82.3 µM
GI50 [45]: 26.4 µM
TGI [45]: > 100 µM
GI50 [46]: 13.4 µM
TGI [46]: 38.8 µM
GI50 [47]: 34.1 µM
TGI [47]: > 100 µM
GI50 [48]: 16 µM
TGI [48]: 34.3 µM
GI50 [49]: 33.1 µM
TGI [49]: > 100 µM
GI50 [50]: 32.3 µM
TGI [50]: > 100 µM
GI50 [51]: 36.4 µM
TGI [51]: > 100 µM
GI50 [52]: 24 µM
TGI [52]: 94.7 µM
GI50 [53]: 12.3 µM
TGI [53]: 45.3 µM
GI50 [54]: 29.9 µM
TGI [54]: > 100 µM
GI50 [55]: 24.2 µM
TGI [55]: > 100 µM
GI50 [56]: 20.7 µM
TGI [56]: 49.8 µM
GI50 [57]: 24.9 µM
TGI [57]: 64.9 µM

C[C@]12CCC(=O)CC1CC[C@@H]1C2CC[C@@]2(C)C1CC[C@@H]2OC(=O)CC[Se][Se]CCC(=O)O[C@H]1CCC2[C@@H]3CCC4CC(=O)CC[C@]4(C)C3CC[C@@]21C (some centres not stated)
GI50 [1]: 3.61 µM
TGI [1]: 13.2 µM
GI50 [2]: 1.77 µM
TGI [2]: 3.35 µM
GI50 [3]: 4.15 µM
TGI [3]: > 100 µM
GI50 [4]: 2.67 µM
TGI [4]: 5.7 µM
GI50 [5]: 2.12 µM
TGI [5]: 5.07 µM
GI50 [6]: 13.4 µM
TGI [6]: 31.6 µM
GI50 [7]: 1.83 µM
TGI [7]: 3.63 µM
GI50 [8]: 2.55 µM
TGI [8]: 8.27 µM
GI50 [9]: 2.13 µM
TGI [9]: 4.3 µM
GI50 [10]: 5.03 µM
TGI [10]: > 100 µM
GI50 [11]: 3.63 µM
TGI [11]: 18.4 µM
GI50 [12]: 1.94 µM
TGI [12]: 4.39 µM
GI50 [13]: 2.1 µM
TGI [13]: 4.52 µM
GI50 [14]: 2.44 µM
GI50 [15]: 7.15 µM
TGI [15]: 17.4 µM
GI50 [16]: 3.17 µM
TGI [16]: 10.9 µM
GI50 [17]: 9.1 µM
TGI [17]: 27.1 µM
GI50 [18]: 3.25 µM
TGI [18]: 9.36 µM
GI50 [58]: 3.06 µM
TGI [58]: 9.84 µM
GI50 [19]: 4.67 µM
TGI [19]: > 100 µM
GI50 [20]: 1.48 µM
TGI [20]: 3.02 µM
GI50 [21]: 1.57 µM
TGI [21]: 3.36 µM
GI50 [22]: 1.86 µM
TGI [22]: 3.79 µM
GI50 [23]: 3.64 µM
TGI [23]: 16 µM
GI50 [24]: 3.03 µM
TGI [24]: 11.4 µM
GI50 [25]: 2.86 µM
TGI [25]: 13 µM
GI50 [26]: 2.08 µM
TGI [26]: 7.95 µM
GI50 [27]: 10 µM
TGI [27]: > 100 µM
GI50 [28]: 2.1 µM
TGI [28]: 4.79 µM
GI50 [29]: 3.54 µM
TGI [29]: > 100 µM
GI50 [30]: 6.5 µM
TGI [30]: 25.1 µM
GI50 [31]: 2.25 µM
TGI [31]: 5.79 µM
GI50 [32]: 3.22 µM
TGI [32]: 10.5 µM
GI50 [33]: 4.81 µM
TGI [33]: 20 µM
GI50 [34]: 2.2 µM
TGI [34]: 8.05 µM
GI50 [35]: 1.76 µM
TGI [35]: 4.15 µM
GI50 [36]: 2.28 µM
TGI [36]: 5.69 µM
GI50 [37]: 1.82 µM
TGI [37]: 3.83 µM
GI50 [38]: 2.19 µM
TGI [38]: 5.05 µM
GI50 [39]: 2.01 µM
TGI [39]: 5.05 µM
GI50 [40]: 4.28 µM
TGI [40]: > 100 µM
GI50 [41]: 2.25 µM
TGI [41]: 6.43 µM
GI50 [42]: 1.91 µM
TGI [42]: 3.85 µM
GI50 [44]: 3.51 µM
TGI [44]: 15.6 µM
GI50 [45]: 2.61 µM
TGI [45]: 10.7 µM
GI50 [46]: 2.84 µM
TGI [46]: 9.81 µM
GI50 [47]: 2.5 µM
TGI [47]: 6.01 µM
GI50 [48]: 2.17 µM
TGI [48]: 4.01 µM
GI50 [49]: 2.52 µM
TGI [49]: 5.34 µM
GI50 [50]: 4.09 µM
TGI [50]: 14.5 µM
GI50 [51]: 1.64 µM
TGI [51]: 5.09 µM
GI50 [52]: 2.73 µM
TGI [52]: 6.84 µM
GI50 [53]: 3.85 µM
TGI [53]: 12 µM
GI50 [54]: 1.82 µM
TGI [54]: 3.75 µM
GI50 [55]: 2.01 µM
TGI [55]: 4.16 µM
GI50 [56]: 2.02 µM
TGI [56]: 7.79 µM
GI50 [57]: 2.22 µM
TGI [57]: 6.04 µM
